ChEMBL document CHEMBL1132017, “In vitro susceptibility of Helicobacter pylori to trifluoromethyl ketones” (1999)
≈ marks a conversion by molar mass, not a printed value.

What follows are compounds tested on Helicobacter pylori (assay: In vitro inhibitory activity evaluated against Helicobacter pylori (HP)).
Format: functional

SMILES	MIC50 [µg/mL]
O=C(c1ccccc1)C(F)(F)F	> 100
O=C(Cc1ccccn1)C(F)(F)F	> 100
CC(=O)Cc1nc2ccccc2o1	51 (≈ 291 µM)
Cc1nc(CC(=O)C(F)(F)F)oc1C	> 100
O=C(c1cccs1)C(F)(F)F	53 (≈ 294 µM)
CC[C@H]1OC(=O)[C@H](C)[C@@H](O[C@H]2C[C@@](C)(OC)[C@@H](O)[C@H](C)O2)[C@H](C)[C@@H](O[C@@H]2O[C@H](C)C[C@H](N(C)C)[C@H]2O)[C@](C)(OC)C[C@@H](C)C(=O)[C@H](C)[C@@H](O)[C@]1(C)O [CLARITHROMYCIN]	1.9 (≈ 2.54 µM)
CC[C@H]1OC(=O)[C@H](C)[C@@H](O[C@H]2C[C@@](C)(OC)[C@@H](O)[C@H](C)O2)[C@H](C)[C@@H](O[C@@H]2O[C@H](C)C[C@H](N(C)C)[C@H]2O)[C@](C)(O)C[C@@H](C)C(=O)[C@H](C)[C@@H](O)[C@]1(C)O [ERYTHROMYCIN]	1.8 (≈ 2.45 µM)
Cc1ncc([N+](=O)[O-])n1CCO [METRONIDAZOLE]	74 (≈ 432 µM)

Results, then the compound that gave them:

MIC50 [µg/mL]	SMILES
> 100	O=C(Cc1ccccc1)C(F)(F)F
70 (≈ 285 µM)	O=C(Cc1nc2ccccc2s1)C(F)(F)F
> 100	O=C(c1nc2ccccc2o1)C(F)(F)F
> 100	Cn1c(C(=O)C(F)(F)F)cnc1-c1ccccc1
> 100	O=C(c1ccc[nH]1)C(F)(F)F
12 (≈ 56.3 µM)	O=C(c1c[nH]c2ccccc12)C(F)(F)F
3.6 (≈ 15.7 µM)	O=C(Cc1nc2ccccc2o1)C(F)(F)F
52 (≈ 228 µM)	O=C(Cc1nc2ccccc2[nH]1)C(F)(F)F
